Experimental data: patent publication US20260022142A1, “MACROCYCLIC IMMUNOMODULATORS” (Bristol-Myers Squibb Company, priority 2022, published 2026)
pIC50: −log10 of the molar value. Numbered stars: 1 amine (or outer) side, 2 acyl side, 3 side chain; on linkers, the order of the positions; unused ones are H or OH. Bridge positions count the residues as written; N and C are the ends. Square brackets hold non-standard residues; d marks the D form. Peptide text beside a SMILES is read from it. * marks the point of attachment. ξ: configuration not given here. Bip = N[C@@H](Cc1ccc(-c2ccccc2)cc1)C(=O)O; Phe(3-Me) = Cc1cccc(C[C@H](N)C(=O)O)c1; X12 = CC(N)[C@H](N[*:1])C(=O)[*:2]; Cha = N[C@@H](CC1CCCCC1)C(=O)O; Cit = NC(=O)NCCC[C@H](N)C(=O)O; Thr(3ξ) = CC(O)[C@H](N)C(=O)O; Tle = CC(C)(C)[C@H](N)C(=O)O; Carboxymethyl = O=C(O)C*; Orn = NCCC[C@H](N)C(=O)O; Aun = NCCCCCCCCCCC(=O)O; Dab = NCC[C@H](N)C(=O)O; Dap = NC[C@H](N)C(=O)O; Piv = CC(C)(C)C(=O)*

Target: T1, PD-1/PD-L1 interaction (PE-labeled human PD-L1-Ig binding to Jurkat cell line over-expressing human PD-1) (Homo sapiens, UniProt Q15116)
T1 construct: expressed in transfected cells; host or cells: Jurkat
Assay: Jurkat-PD-1 Cell Binding High-Content Screening Assay (CBA)
Type: cell-based
Conditions: Jurkat cell line over-expressing human PD-1; PE-labeled PD-L1-Ig 20 nM final; read-out: Jurkat hPD1-PDL1 IC50
How it was run: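 Binding of fluorescent PD-L1-Ig (phycoerythrin on Ig tag, 20 nM final, 1 h) measured by high-content imaging of fixed, Hoechst-counterstained Jurkat-hPD-1 cells. Compound added 2 h at 37° C beforehand, in DMEM with 10% fetal calf serum.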

T1 sequence (Q15116 25-288): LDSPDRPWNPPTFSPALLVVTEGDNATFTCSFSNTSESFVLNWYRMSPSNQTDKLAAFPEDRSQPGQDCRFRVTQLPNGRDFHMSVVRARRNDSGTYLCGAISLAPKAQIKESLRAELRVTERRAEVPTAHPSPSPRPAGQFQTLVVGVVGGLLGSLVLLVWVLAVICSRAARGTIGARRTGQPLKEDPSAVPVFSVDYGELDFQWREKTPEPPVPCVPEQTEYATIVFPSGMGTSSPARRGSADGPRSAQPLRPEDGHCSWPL

| SMILES | pIC50 |
| --- | --- |
| Cc1cccc(C[C@@H]2NC(=O)[C@H](CC(=O)O)NC(=O)[C@H](Cc3ccc(OCC(=O)O)cc3)NC(=O)[C@H](CCNC(=O)C(C)(C)C)NC(=O)CSC[C@@H](C(=O)N[C@@H](CCN)C(=O)NCCCCCCCCCCC(=O)O)NC(=O)[C@H](C(C)O)NC(=O)[C@H](C(C)(C)C)NC(=O)[C@H](CC3CCCCC3)NC(=O)[C@H](CCN)NC(=O)[C@@H](CC(C)C)NC(=O)[C@H](CCCN)NC(=O)[C@H](Cc3ccc(OCC(=O)O)cc3)NC(=O)[C@H](Cc3ccc(-c4ccccc4)cc3)NC(=O)[C@H](Cc3ccc(O)cc3)NC2=O)c1 (stereo partly drawn) [Compound 3517] ({CH2CO}-[Dab](Piv)Y(Carboxymethyl)D[Phe(3-Me)]Y[Bip]Y(Carboxymethyl)[Orn][dL][Dab][Cha][Tle][Thr(3ξ)]C[Dab][Aun]-OH; thioether N-14) | 7.55 |
| Cc1cccc(C[C@@H]2NC(=O)[C@H](CC(=O)O)NC(=O)[C@H](Cc3ccc(OCC(=O)O)cc3)NC(=O)[C@H](CNC(=O)C(C)(C)C)NC(=O)CSC[C@@H](C(=O)N[C@@H](CC(N)=O)C(=O)NCCCCCCCCCCC(=O)O)NC(=O)[C@H](C(C)O)NC(=O)[C@H](C(C)(C)C)NC(=O)[C@H](CC3CCCCC3)NC(=O)[C@H](CCN)NC(=O)[C@@H](CC(C)C)NC(=O)[C@H](CCCN)NC(=O)[C@H](Cc3ccc(OCC(=O)O)cc3)NC(=O)[C@H](Cc3ccc(-c4ccccc4)cc3)NC(=O)[C@H](Cc3ccc(O)cc3)NC2=O)c1 (stereo partly drawn) [Compound 3518] ({CH2CO}-[Dap](Piv)Y(Carboxymethyl)D[Phe(3-Me)]Y[Bip]Y(Carboxymethyl)[Orn][dL][Dab][Cha][Tle][Thr(3ξ)]CN[Aun]-OH; thioether N-14) | 7.45 |
| Cc1cccc(C[C@@H]2NC(=O)[C@H](CC(=O)O)NC(=O)[C@H](Cc3ccc(OCC(=O)O)cc3)NC(=O)[C@H](C(C)N)NC(=O)CSC[C@@H](C(=O)N[C@@H](CCN)C(=O)NCCCCCCCCCCC(=O)O)NC(=O)[C@H](CCC(N)=O)NC(=O)[C@H](C(C)O)NC(=O)[C@H](CC3CCCCC3)NC(=O)[C@H](CCN)NC(=O)[C@@H](CC(C)C)NC(=O)[C@H](CCCN)NC(=O)[C@H](Cc3ccc(OCC(=O)O)cc3)NC(=O)[C@H](Cc3ccc(-c4ccccc4)cc3)NC(=O)[C@H](Cc3ccc(OCC(=O)O)cc3)NC2=O)c1 (stereo partly drawn) [Compound 3519] ({CH2CO}-[X12]Y(Carboxymethyl)D[Phe(3-Me)]Y(Carboxymethyl)[Bip]Y(Carboxymethyl)[Orn][dL][Dab][Cha][Thr(3ξ)]QC[Dab][Aun]-OH; thioether N-14) | 7.98 |
| Cc1cccc(C[C@@H]2NC(=O)[C@H](CC(=O)O)NC(=O)[C@H](Cc3ccc(OCC(=O)O)cc3)NC(=O)[C@H](C(C)O)NC(=O)CSC[C@@H](C(=O)N[C@H](CC(N)=O)C(=O)NCCCCCCCCCCC(=O)O)NC(=O)[C@H](C(C)(C)C)NC(=O)[C@H](CO)NC(=O)[C@H](CC3CCCCC3)NC(=O)[C@H](CCN)NC(=O)[C@@H](CC(C)C)NC(=O)[C@H](CCCN)NC(=O)[C@H](Cc3ccc(OCC(=O)O)cc3)NC(=O)[C@H](Cc3ccc(-c4ccccc4)cc3)NC(=O)[C@H](Cc3ccc(O)cc3)NC2=O)c1 (stereo partly drawn) [Compound 3520] ({CH2CO}-[Thr(3ξ)]Y(Carboxymethyl)D[Phe(3-Me)]Y[Bip]Y(Carboxymethyl)[Orn][dL][Dab][Cha]S[Tle]C[dN][Aun]-OH; thioether N-14) | 6.22 |
| Cc1cccc(C[C@@H]2NC(=O)[C@H](CC(=O)O)NC(=O)[C@H](Cc3ccc(OCC(=O)O)cc3)NC(=O)[C@H](CCCNC(=N)N)NC(=O)CSC[C@@H](C(=O)N[C@H](CC(N)=O)C(=O)NCCCCCCCCCCC(=O)O)NC(=O)[C@H](C(C)O)NC(=O)[C@H](C(C)O)NC(=O)[C@H](CC3CCCCC3)NC(=O)[C@H](CCN)NC(=O)[C@@H](CC(C)C)NC(=O)[C@H](CCCN)NC(=O)[C@H](CCCNC(N)=O)NC(=O)[C@H](Cc3ccc(-c4ccccc4)cc3)NC(=O)[C@H](C(C)C)NC2=O)c1 (stereo partly drawn) [Compound 3522] ({CH2CO}-RY(Carboxymethyl)D[Phe(3-Me)]V[Bip][Cit][Orn][dL][Dab][Cha][Thr(3ξ)][Thr(3ξ)]C[dN][Aun]-OH; thioether N-14) | 7.39 |
| Cc1cccc(C[C@@H]2NC(=O)[C@H](CC(=O)O)NC(=O)[C@H](Cc3ccc(OCC(=O)O)cc3)NC(=O)[C@H](CCCNC(=N)N)NC(=O)CSC[C@@H](C(=O)N[C@H](CC(N)=O)C(=O)NCCCCCCCCCCC(=O)O)NC(=O)[C@H](C(C)O)NC(=O)[C@H](C(C)O)NC(=O)[C@H](CC3CCCCC3)NC(=O)[C@H](CCN)NC(=O)[C@@H](CC(C)C)NC(=O)[C@H](CCCN)NC(=O)[C@H](Cc3ccc(OCC(=O)O)cc3)NC(=O)[C@H](Cc3ccc(-c4ccccc4)cc3)NC(=O)[C@H](Cc3ccc(OCC(=O)O)cc3)NC2=O)c1 (stereo partly drawn) [Compound 3523] ({CH2CO}-RY(Carboxymethyl)D[Phe(3-Me)]Y(Carboxymethyl)[Bip]Y(Carboxymethyl)[Orn][dL][Dab][Cha][Thr(3ξ)][Thr(3ξ)]C[dN][Aun]-OH; thioether N-14) | 6.92 |
| Cc1cccc(C[C@@H]2NC(=O)[C@H](CC(=O)O)NC(=O)[C@H](Cc3ccc(OCC(=O)O)cc3)NC(=O)[C@H](CCCNC(=N)N)NC(=O)CSC[C@@H](C(=O)N[C@H](CC(N)=O)C(=O)NCCCCCCCCCCC(=O)O)NC(=O)[C@H](C(C)O)NC(=O)[C@H](C(C)O)NC(=O)[C@H](CC3CCCCC3)NC(=O)[C@H](CCN)NC(=O)[C@@H](CC(C)C)NC(=O)[C@H](CCCN)NC(=O)[C@H](Cc3ccc(OCC(=O)O)cc3)NC(=O)[C@H](Cc3ccc(-c4ccccc4)cc3)NC(=O)[C@H](Cc3ccc(O)cc3)NC2=O)c1 (stereo partly drawn) [Compound 3524] ({CH2CO}-RY(Carboxymethyl)D[Phe(3-Me)]Y[Bip]Y(Carboxymethyl)[Orn][dL][Dab][Cha][Thr(3ξ)][Thr(3ξ)]C[dN][Aun]-OH; thioether N-14) | 7.39 |
| Cc1cccc(C[C@@H]2NC(=O)[C@H](CC(=O)O)NC(=O)[C@H](Cc3ccc(OCC(=O)O)cc3)NC(=O)[C@H](CCCNC(=N)N)NC(=O)CSC[C@@H](C(=O)N[C@H](CC(N)=O)C(=O)NCCCCCCCCCCC(=O)O)NC(=O)[C@H](C(C)O)NC(=O)[C@H](CO)NC(=O)[C@H](CC3CCCCC3)NC(=O)[C@H](CCN)NC(=O)[C@@H](CC(C)C)NC(=O)[C@H](CCCN)NC(=O)[C@H](Cc3ccc(OCC(=O)O)cc3)NC(=O)[C@H](Cc3ccc(-c4ccccc4)cc3)NC(=O)[C@H](Cc3c[nH]c4ccccc34)NC2=O)c1 (stereo partly drawn) [Compound 3525] ({CH2CO}-RY(Carboxymethyl)D[Phe(3-Me)]W[Bip]Y(Carboxymethyl)[Orn][dL][Dab][Cha]S[Thr(3ξ)]C[dN][Aun]-OH; thioether N-14) | 6.46 |
| Cc1cccc(C[C@@H]2NC(=O)[C@H](CC(=O)O)NC(=O)[C@H](Cc3ccc(OCC(=O)O)cc3)NC(=O)[C@H](CCCNC(=N)N)NC(=O)CSC[C@@H](C(=O)N[C@H](CC(N)=O)C(=O)NCCCCCCCCCCC(=O)O)NC(=O)[C@H](CO)NC(=O)[C@H](C(C)O)NC(=O)[C@H](CC3CCCCC3)NC(=O)[C@H](CCN)NC(=O)[C@@H](CC(C)C)NC(=O)[C@H](CCCN)NC(=O)[C@H](Cc3ccc(OCC(=O)O)cc3)NC(=O)[C@H](Cc3ccc(-c4ccccc4)cc3)NC(=O)[C@H](Cc3ccc(OCC(=O)O)cc3)NC2=O)c1 (stereo partly drawn) [Compound 3526] ({CH2CO}-RY(Carboxymethyl)D[Phe(3-Me)]Y(Carboxymethyl)[Bip]Y(Carboxymethyl)[Orn][dL][Dab][Cha][Thr(3ξ)]SC[dN][Aun]-OH; thioether N-14) | 6.95 |
| Cc1cccc(C[C@@H]2NC(=O)[C@H](CC(=O)O)NC(=O)[C@H](Cc3ccc(OCC(=O)O)cc3)NC(=O)[C@H](CCCNC(=N)N)NC(=O)CSC[C@@H](C(=O)N[C@H](CC(N)=O)C(=O)NCCCCCCCCCCC(=O)O)NC(=O)[C@H](CO)NC(=O)[C@H](C(C)(C)C)NC(=O)[C@H](CC3CCCCC3)NC(=O)[C@H](CCN)NC(=O)[C@@H](CC(C)C)NC(=O)[C@H](CCCN)NC(=O)[C@H](Cc3ccc(OCC(=O)O)cc3)NC(=O)[C@H](Cc3ccc(-c4ccccc4)cc3)NC(=O)[C@H](Cc3ccc(OCC(=O)O)cc3)NC2=O)c1 [Compound 3527] ({CH2CO}-RY(Carboxymethyl)D[Phe(3-Me)]Y(Carboxymethyl)[Bip]Y(Carboxymethyl)[Orn][dL][Dab][Cha][Tle]SC[dN][Aun]-OH; thioether N-14) | 7.29 |
| Cc1cccc(C[C@@H]2NC(=O)[C@H](CC(=O)O)NC(=O)[C@H](Cc3ccc(OCC(=O)O)cc3)NC(=O)[C@H](CCCNC(=N)N)NC(=O)CSC[C@@H](C(=O)N[C@H](CC(N)=O)C(=O)NCCCCCCCCCCC(=O)O)NC(=O)[C@H](CCC(N)=O)NC(=O)[C@H](C(C)(C)C)NC(=O)[C@H](CC3CCCCC3)NC(=O)[C@H](CCN)NC(=O)[C@@H](CC(C)C)NC(=O)[C@H](CCCN)NC(=O)[C@H](Cc3ccc(OCC(=O)O)cc3)NC(=O)[C@H](Cc3ccc(-c4ccccc4)cc3)NC(=O)[C@H](Cc3ccc(OCC(=O)O)cc3)NC2=O)c1 [Compound 3528] ({CH2CO}-RY(Carboxymethyl)D[Phe(3-Me)]Y(Carboxymethyl)[Bip]Y(Carboxymethyl)[Orn][dL][Dab][Cha][Tle]QC[dN][Aun]-OH; thioether N-14) | 7.06 |
| Cc1cccc(C[C@@H]2NC(=O)[C@H](CC(=O)O)NC(=O)[C@H](Cc3ccc(OCC(=O)O)cc3)NC(=O)[C@H](CCCNC(=N)N)NC(=O)CSC[C@@H](C(=O)N[C@H](CC(N)=O)C(=O)NCCCCCCCCCCC(=O)O)NC(=O)[C@H](CCC(N)=O)NC(=O)[C@H](C(C)O)NC(=O)[C@H](CC3CCCCC3)NC(=O)[C@H](CCN)NC(=O)[C@@H](CC(C)C)NC(=O)[C@H](CCCN)NC(=O)[C@H](Cc3ccc(OCC(=O)O)cc3)NC(=O)[C@H](Cc3ccc(-c4ccccc4)cc3)NC(=O)[C@H](Cc3ccc(OCC(=O)O)cc3)NC2=O)c1 (stereo partly drawn) [Compound 3529] ({CH2CO}-RY(Carboxymethyl)D[Phe(3-Me)]Y(Carboxymethyl)[Bip]Y(Carboxymethyl)[Orn][dL][Dab][Cha][Thr(3ξ)]QC[dN][Aun]-OH; thioether N-14) | 7.11 |
